From patent publication EP4692072A1, “PHOTOCHROMIC COMPOUND, PROPARGYL ALCOHOL COMPOUND, CURABLE COMPOSITION, OPTICAL ARTICLE, LENS, AND SPECTACLES” (TOKUYAMA CORPORATION, priority 2023, dated 2024) come the findings set out here.

Data set [1] can be described thus: Photochromic properties of binder sheet (photochromic layer prepared by binder method). The data set is classed as physicochemical. To be noted: 0.25 mmol per 100 parts by mass resin; for A23: 23°C color optical density ε(300)-ε(0); for Maximum absorption wavelength: urethaneurea resin binder sheet, after color development. The method, then:
(§1) • [1] Maximum Absorption Wavelength (λmax): The maximum absorption wavelength after color development, measured using a spectrophotometer (instantaneous multichannel photodetector MCPD3000) manufactured by Otsuka Electronics Co., Ltd. was used as an indicator for the color tone during the color development. • [2] 23°C Color Optical Density (A23): A difference between an absorbancy measured after light irradiation at 23°C for 300 seconds {ε(300)} and an absorbancy without light irradiation ε(0) at the maximum absorption wavelength was used as an indicator for the color optical density. […] 23°C color fading half-life [τ1/2 (sec.)]: A time required for the absorbancy of the sample at the maximum absorption wavelength to decrease to 1/2 of {ε(300)-ε(0)} when the light irradiation was terminated after the light irradiation at 23°C for 300 seconds, was used as an indicator for the color fading speed. The shorter this time, the higher the color fading speed. • [4] Residual rate (A120/A0×100): The obtained photochromic plastic lens was subjected to accelerated deterioration using a xenon weather meter X25 manufactured by Suga Test Instruments Co., Ltd. for 120 hours. Subsequently, the color optical density was evaluated before and after the test, then a color optical density before the test (A0) and a color optical density after the test (A120) were measured, and a ratio (A120/A0) was defined as a residual rate. The residual rate was used as an indicator for a color developing durability. The higher the residual rate, the higher the color developing durability. The results of Examples 26, 50, and Comparative Examples 1 to 8 are summarized in Table 1, and the results of Examples 27 to 49 are summarized in Tables 2 and 3.
(§2) A binder sheet was prepared using the following method. The binder sheet consisted of a first optical sheet, a first adhesive layer, a photochromic layer, a second adhesive layer, and a second optical sheet, which are laminated in this order. The first optical sheet and the second optical sheet were made of a polycarbonate sheet with a thickness of 400 µm.
(§3) A 2L four-necked flask equipped with agitation blades, a cooling tube, a thermometer, and a nitrogen gas introducing tube was charged with 315 parts by mass of polycarbonate diol having a number-average molecular weight of 1000, 100 parts by mass of isophorone diisocyanate, and 72 parts by mass of toluene, and the mixture was reacted under nitrogen atmosphere at 100°C for 7 hours to synthesize a urethane prepolymer having an isocyanate group on its terminal. After completion of the urethane prepolymer reaction, the reaction liquid was cooled to approximately 0°C, then dissolved in 205 parts by mass of t-butyl alcohol and 382 parts by mass of diethyl ketone, and then the liquid temperature was maintained at 0°C. Subsequently, into this reaction liquid, a mixture of 21.3 parts by mass of bis-(4-aminocyclohexyl)methane as a chain extender and 20 parts by mass of diethyl ketone was dripped over within 30 minutes, and the mixture was reacted at 0°C for 1 hour. Then, into the mixture, 8.1 parts by mass of 1,2,2,6,6-pentamethyl-4-aminopiperidine was dripped, and the mixture was reacted at 0°C for 1 hour to obtain a diethyl ketone solution of a terminal non-reactive urethaneurea resin.
(§4) To 100 parts by mass of the obtained terminal non-reactive urethaneurea resin solution, the photochromic compound in Example 1 (represented by formula (28) above), 6.3 parts by mass of 4,4'-methylenebis(cyclohexyl isocyanate) isomer mixture (polyisocyanate compound), furthermore 0.4 part by mass of ethylene bis(oxyethylene)bis[3-(5-tert-butyl-4-hydroxy-m-tolyl)propionate] as an antioxidant, and 0.06 part by mass of DOW CORNING TORAY L-7001 as a surfactant were added, and the mixture was stirred and mixed at room temperature to obtain a photochromic layer forming composition. […]

A short description of data set [2]: Accelerated deterioration (xenon weather meter X25, 120 hours) of binder sheet prepared by binder method. The format is physicochemical. To be noted: 0.25 mmol per 100 parts by mass resin, A120/A0×100 after 120 hours xenon weather meter. The protocol: as §1, §2, §3, §4

SMILES strings stand for the structures.

As to `COc1ccc(C2(c3ccc(N(C)c4ccccc4)cc3)C=Cc3c4c(c5cc(-c6ccc(N7CCOCC7)cc6)c(OC)cc5c3O2)-c2ccccc2C4(C)C)cc1` (centres unmarked) [Example 1], the A23 is recorded as 0.97 - in data set [1] and 1.06 - in data set [1] (listed as Formula (37)). Moreover, the Maximum absorption wavelength was 502 nm in data set [1] and 603 nm in data set [1] (listed as Formula (37)). The Residual rate in data set [2] is reported as 89%; in data set [2] (listed as Formula (37)), 90%.

For the compound `CCCCN(c1ccccc1)c1ccc(C2(c3ccc(C)cc3)C=Cc3c4c(c5cc(N6CCOCC6)c(OC)cc5c3O2)-c2ccccc2C4(CC)CC)cc1` (centres unmarked) [Example 10], the results for the A23 in data set [1] and in data set [1] (listed as Formula (62)) were 1.35 - and 1.12 -, respectively. For the same compound, the Maximum absorption wavelength in data set [1] turned out to be 516 nm; in data set [1] (listed as Formula (62)) it was 594 nm. In data set [2], this compound displayed a Residual rate of 91%.

As for `COCCCCC1(CCCCOC)c2cc(Sc3c(C)cccc3C)ccc2-c2c1c1c(c3cc(OC)ccc23)OC(c2ccc(OC)cc2)(c2ccc(N(C)c3ccc(OC)cc3)cc2)C=C1` (centres unmarked) [Example 11], the A23 was 0.51 - in data set [1] and 0.97 - in data set [1] (listed as Formula (65)). Besides, the Maximum absorption wavelength in data set [1] worked out at 479 nm; in data set [1] (listed as Formula (65)), 612 nm. The results for the Residual rate in data set [2] and in data set [2] (listed as Formula (65)) were 90% and 89%, respectively.

As for `CCCC1(CCC)c2ccccc2-c2c1c1c(c3cc(OC)c(-c4ccc(OC)cc4OC)cc23)OC(c2ccc(C)cc2)(c2ccc(N(C)c3ccccc3)cc2)C=C1` (centres unmarked) [Example 19], the A23 is given as 0.88 - in data set [1] and 1.14 - in data set [1] (listed as Formula (80)). Moreover, the Maximum absorption wavelength in data set [1] was 492 nm; in data set [1] (listed as Formula (80)), 604 nm. Also, the Residual rate in data set [2] is recorded as 91%.

For the compound `COCCC1(CCOC)c2ccccc2-c2c1c1c(c3cc(OC)c(-c4ccc(N(c5ccccc5)c5ccccc5)cc4)cc23)OC(c2ccc(Oc3ccccc3)cc2)(c2ccc(N(C)c3ccccc3)cc2)C=C1` (centres unmarked) [Example 23], in data set [1], the A23 is given as 1.02 - and the Maximum absorption wavelength came out at 506 nm. In addition, in data set [1] (listed as Formula (85)), the A23 is 1.06 - and the Maximum absorption wavelength stood at 609 nm. Also, in data set [2], the Residual rate amounted to 89%.

On to `CCN(c1ccc(OC)cc1)c1ccc(C2(c3ccc(OC)cc3)C=Cc3c4c(c5cc(-c6ccc(N7CCOCC7)cc6)c(OC)cc5c3O2)-c2ccccc2C4(C)C)cc1` (centres unmarked) [Example 25], for which, in data set [1], the A23 was 0.88 - and the Maximum absorption wavelength is given as 505 nm. Further, in data set [1] (listed as Formula (88)), the A23 is on record as 0.97 - and the Maximum absorption wavelength is given as 606 nm. Further, the Residual rate in data set [2] came out at 87%.

Consider `CCCCOCCC1(CCOCCCC)c2ccccc2-c2c1c1c(c3cc(OC)c(NC(=O)c4ccccc4)cc23)OC(c2ccc(N(C)c3ccccc3)cc2)(c2ccc(OC)c(F)c2)C=C1` (centres unmarked) [Example 53], for which the A23 in data set [1] was 0.75 -; in data set [1] (listed as Formula (95)), 0.96 -. The Maximum absorption wavelength in data set [1] is 502 nm; in data set [1] (listed as Formula (95)), 607 nm. Besides, the Residual rate in data set [2] turned out to be 87%; in data set [2] (listed as Formula (95)), 89%.

Take `CCCC1(CCC)c2cc(OC(F)(F)F)ccc2-c2c1c1c(c3cc(OC)c(Sc4c(C)cccc4C)cc23)OC(c2ccc(N(C)c3ccccc3)cc2)(c2ccc(OC)c(OC)c2)C=C1` (centres unmarked) [Example 57]: the A23 in data set [1] is 0.85 -; in data set [1] (listed as Formula (110)) it was 0.87 -. Moreover, the Maximum absorption wavelength amounted to 493 nm in data set [1] and 618 nm in data set [1] (listed as Formula (110)). Besides, the Residual rate in data set [2] was determined as 91%; in data set [2] (listed as Formula (110)), 90%.

On to `COc1ccc(N(C)c2ccc(C3(c4ccc(CCO[Si](C)(C)CC[Si](O[Si](C)(C)C)(O[Si](C)(C)C)O[Si](C)(C)C)cc4)C=Cc4c5c(c6cc(N(C)c7ccccc7)c(OC)cc6c4O3)-c3ccc(C(F)(F)F)cc3C53CCC(C)(C)CC3)cc2)cc1` (centres unmarked) [Example 60], for which the figures for the A23 in data set [1] and in data set [1] (listed as Formula (121)) were 0.84 - and 0.87 -, respectively. In addition, the Maximum absorption wavelength was 524 nm in data set [1] and 582 nm in data set [1] (listed as Formula (121)). Further, the values for the Residual rate in data set [2] and in data set [2] (listed as Formula (121)) were 88% and 89%, respectively.
